Experimental findings from patent US20250115926A1, “DEREGULATED DHS AND TYRA ENZYMES OF GRASSES ENABLE EFFICIENT PRODUCTION OF BOTH TYROSINE AND PHENYLALANINE” (Wisconsin Alumni Research Foundation, priority 2023, published 2025) are described below.

The subject of assay [1] is Brachypodium distachyon DHS enzymes (BdDHS1a, BdDHS1b, BdDHS2). Kind of assay: DHS activity: kinetics and effector inhibition, three isoforms together. The format is biochemical. To be noted: arogenate treated with 1N HCl for 30 minutes (FIG. 16A). From the text: (§1) To examine their functional properties, the recombinant DHS enzymes of Brachypodium were produced and characterized in vitro.
(§2) As recent studies have shown that plant DHS enzymes are feedback-inhibited by multiple effector molecules^15, 16, we tested the effect of AAAs and another 14 related metabolites, including various intermediates of the shikimate pathway and the pathways downstream of AAAs, on Brachypodium DHS enzymes.
(§3) The DHS assay for UHPLC-MS quantification was set up using the same settings as described in the previous paragraph for the UV-based DHS assay, which guaranteed at least 10 minutes of reaction linearity. After a 10-minute incubation, 20 μL of the reactions (out of a total volume of 50 μL) were mixed into 80 μL of methanol, vortexed and transferred to vials for injection. Analysis of DAHP by UHPLC-MS was conducted using the same chromatographic settings as described for the UHPLC-MS analysis of soluble metabolites and compared with an authentic DAHP standard (Sta. Cruz biotechnology, cat. no. sc-216432).

Assay [2] deals with Arabidopsis thaliana AtDHS2 (Arabidopsis thaliana, UniProt Q00218). Kind of assay: DHS inhibition assay with hydrolyzed arogenate. The format is biochemical. To be noted: arogenate treated with 1N HCl for 30 minutes (FIG. 16A).
Experimental: All DHS effectors tested were included in the initial reaction mixtures at a concentration of 0.5 mM, except for IC50 determination for arogenate and tryptophan, in which variable concentrations were used. To ensure at least 10 minutes of linear reaction, enzyme mass per reaction was carefully adjusted to between 100 to 300 ng (depending on the specific activity of each specific isoform) using DHS storage buffer supplemented with BSA. […] The enzymatic reaction was started with the addition of E4P (variable concentration, see below).
The target in assay [3] is Brachypodium distachyon BdDHS1a, SEQ ID NO: 1, recombinant (Brachypodium distachyon, UniProt I1GSB3). As to the kind of experiment: DHS activity: kinetics and effector inhibition.
Text: as §1, §2, §3

For assay [4], the target named is Brachypodium distachyon BdDHS1b, SEQ ID NO: 3, recombinant (Brachypodium distachyon, UniProt I1H4W3). As to the kind of experiment: DHS activity: kinetics and effector inhibition. The class given is biochemical.
Text: as §1, §2, §3

For assay [5], the target named is Brachypodium distachyon BdDHS2, SEQ ID NO: 5, recombinant (Brachypodium distachyon, UniProt I1I809). Kind of assay: DHS activity: kinetics and effector inhibition. The class given is biochemical.
Text: as §1, §2, §3

Assay [6] deals with Sorghum bicolor SbDHS1b, SEQ ID NO: 11, recombinant (Sorghum bicolor, UniProt C5WXQ3). Kind of assay: DHS activity: effector inhibition. The class given is biochemical. To be noted: effector 0.5 mM. The method, then: (§4) In contrast, BdDHS1b was not inhibited by arogenate even up to 2.5 mM. In fact, DHS1b activity increased in the presence of high concentrations of arogenate (FIG. 4F), likely due to high concentrations of contaminant NaCl present in the arogenate preparation (FIG. 16). Under acidic conditions, arogenate is known to undergo a spontaneous dehydration and decarboxylation into […]. […] Like in Brachypodium DHS enzymes, 0.5 mM arogenate inhibited SbDHS1a and SbDHS2 at ˜50% and ˜40%, respectively, but had no effect on SbDHS1b.

The target in assay [7] is Sorghum bicolor SbDHS1a, SEQ ID NO: 9, recombinant (Sorghum bicolor, UniProt C5X2H5). As to the kind of experiment: DHS activity: effector inhibition. The class given is biochemical. To be noted: effector 0.5 mM. As for the experimental part:
as §4

The target of assay [8] is T1, Sorghum bicolor SbDHS2, SEQ ID NO: 13, recombinant (Sorghum bicolor, UniProt C5YJQ4).
T1 construct: pET28a (NdeI/BamHI), E. coli KRX
Kind of assay: DHS activity: effector inhibition. The format is biochemical. To be noted: effector 0.5 mM. The method, then: as §4

The target in assay [9] is T2, Brachypodium distachyon BdTyrAnc (non-canonical TyrA), SEQ ID NO: 37, recombinant (Brachypodium distachyon, UniProt I1GYB3).
T2 construct: from cDNA
T2 sequence (I1GYB3 58-361): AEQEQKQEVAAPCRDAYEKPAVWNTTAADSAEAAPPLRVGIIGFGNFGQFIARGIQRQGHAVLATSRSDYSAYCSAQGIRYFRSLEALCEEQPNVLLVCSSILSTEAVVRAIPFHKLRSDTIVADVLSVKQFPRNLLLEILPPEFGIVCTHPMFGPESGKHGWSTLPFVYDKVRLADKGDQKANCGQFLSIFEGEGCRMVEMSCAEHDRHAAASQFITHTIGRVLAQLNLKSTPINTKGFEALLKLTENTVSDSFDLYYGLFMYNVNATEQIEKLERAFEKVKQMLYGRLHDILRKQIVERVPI
Kind of assay: TyrA arogenate dehydrogenase kinetics and tyrosine inhibition (340 nm). The class given is biochemical. To be noted: arogenate and NADP^+. From the text: (§5) Next, to study the biochemical properties of grass TyrA enzymes, we generated and characterized recombinant purified TyrA proteins from Brachypodium (BdTyrA) and Sorghum (SbTyrA), two distantly related grass species^43, 44. Whereas TyrA enzymes from dicot plants are generally NADP^+-dependent arogenate dehydrogenases^20, 39, 45, except for NADP^+-prephenate dehydrogenases in the legume family^40, 46, previous reports on the substrate preference of grass TyrA enzymes are inconclusive^17, 19. […] NAD^+-prephenate dehydrogenase activity was absent in all cases, ruling out a significant contamination of the enzyme preparations with the TyrA enzyme from E. coli^47.48.

The target of assay [10] is T3, Sorghum bicolor SbTyrAnc (non-canonical TyrA), SEQ ID NO: 43, recombinant (Sorghum bicolor, UniProt C5Z447).
T3 construct: from cDNA
T3 sequence (C5Z447 56-382): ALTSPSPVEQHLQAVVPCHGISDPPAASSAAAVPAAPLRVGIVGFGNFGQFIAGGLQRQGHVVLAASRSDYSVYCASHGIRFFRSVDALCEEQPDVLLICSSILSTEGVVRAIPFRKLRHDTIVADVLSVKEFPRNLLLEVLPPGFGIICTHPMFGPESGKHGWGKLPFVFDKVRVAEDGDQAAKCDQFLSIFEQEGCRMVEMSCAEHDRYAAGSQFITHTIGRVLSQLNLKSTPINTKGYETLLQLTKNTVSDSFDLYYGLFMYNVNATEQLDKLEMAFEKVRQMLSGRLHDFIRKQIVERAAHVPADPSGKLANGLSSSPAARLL
The description is as above. The format is biochemical. To be noted: arogenate and NADP^+.
Text: as §5

Several values for one entry are separate records, joined by “and”; a condition that tells them apart may be missing. Equal entries are not always repeated. Structures can show the parent of a compound that is named as a salt.

By IC50 is commonly meant the concentration that inhibits the measured activity by half. One may read the inhibition as the percentage by which the read-out fell short of the control. In general, kcat/Km refers to the second-order rate constant that governs catalysis at low substrate concentration.

Brachypodium distachyon BdDHS2, SEQ ID NO: 5, recombinant, sequence (I1I809 31-503): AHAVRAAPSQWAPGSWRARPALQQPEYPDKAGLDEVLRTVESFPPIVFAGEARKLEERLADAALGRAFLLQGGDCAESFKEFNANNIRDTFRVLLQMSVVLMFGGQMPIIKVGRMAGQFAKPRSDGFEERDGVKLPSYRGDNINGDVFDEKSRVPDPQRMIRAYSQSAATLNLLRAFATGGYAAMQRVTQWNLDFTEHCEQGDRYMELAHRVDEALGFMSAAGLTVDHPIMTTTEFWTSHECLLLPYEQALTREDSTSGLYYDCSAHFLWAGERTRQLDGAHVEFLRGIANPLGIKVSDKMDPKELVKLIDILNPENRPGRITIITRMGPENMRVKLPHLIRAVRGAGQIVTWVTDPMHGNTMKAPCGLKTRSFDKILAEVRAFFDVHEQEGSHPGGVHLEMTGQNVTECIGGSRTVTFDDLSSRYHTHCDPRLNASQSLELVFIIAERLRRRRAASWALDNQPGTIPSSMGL
Brachypodium distachyon BdDHS1a, SEQ ID NO: 1, recombinant, sequence (I1GSB3 46-537): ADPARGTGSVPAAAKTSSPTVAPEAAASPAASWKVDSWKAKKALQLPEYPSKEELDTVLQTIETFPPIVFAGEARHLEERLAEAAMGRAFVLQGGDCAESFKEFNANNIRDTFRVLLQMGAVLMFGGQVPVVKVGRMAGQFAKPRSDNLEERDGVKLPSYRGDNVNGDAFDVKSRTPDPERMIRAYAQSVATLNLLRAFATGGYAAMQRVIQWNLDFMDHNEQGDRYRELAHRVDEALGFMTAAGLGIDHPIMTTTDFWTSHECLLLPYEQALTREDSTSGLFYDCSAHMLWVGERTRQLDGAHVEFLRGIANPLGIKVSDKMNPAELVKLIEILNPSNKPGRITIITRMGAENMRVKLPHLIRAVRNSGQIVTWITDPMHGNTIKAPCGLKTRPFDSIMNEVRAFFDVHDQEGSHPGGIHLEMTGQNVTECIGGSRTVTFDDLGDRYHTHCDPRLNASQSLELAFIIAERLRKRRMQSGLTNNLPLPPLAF
Brachypodium distachyon BdDHS1b, SEQ ID NO: 3, recombinant, sequence (I1H4W3 37-542): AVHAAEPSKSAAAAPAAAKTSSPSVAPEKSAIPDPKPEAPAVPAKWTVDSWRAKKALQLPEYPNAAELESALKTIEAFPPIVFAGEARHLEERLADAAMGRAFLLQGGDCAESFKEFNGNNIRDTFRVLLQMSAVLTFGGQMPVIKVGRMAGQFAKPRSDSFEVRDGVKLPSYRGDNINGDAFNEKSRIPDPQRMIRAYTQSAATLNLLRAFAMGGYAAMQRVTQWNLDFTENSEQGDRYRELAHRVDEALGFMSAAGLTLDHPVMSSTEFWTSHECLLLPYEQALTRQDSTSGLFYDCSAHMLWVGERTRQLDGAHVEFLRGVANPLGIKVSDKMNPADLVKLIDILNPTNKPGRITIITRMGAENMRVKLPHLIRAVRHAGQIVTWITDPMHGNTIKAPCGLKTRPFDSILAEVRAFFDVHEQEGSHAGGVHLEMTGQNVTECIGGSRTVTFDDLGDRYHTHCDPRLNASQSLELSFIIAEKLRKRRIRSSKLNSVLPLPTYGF
Sorghum bicolor SbDHS1b, SEQ ID NO: 11, recombinant, sequence (C5WXQ3 48-551): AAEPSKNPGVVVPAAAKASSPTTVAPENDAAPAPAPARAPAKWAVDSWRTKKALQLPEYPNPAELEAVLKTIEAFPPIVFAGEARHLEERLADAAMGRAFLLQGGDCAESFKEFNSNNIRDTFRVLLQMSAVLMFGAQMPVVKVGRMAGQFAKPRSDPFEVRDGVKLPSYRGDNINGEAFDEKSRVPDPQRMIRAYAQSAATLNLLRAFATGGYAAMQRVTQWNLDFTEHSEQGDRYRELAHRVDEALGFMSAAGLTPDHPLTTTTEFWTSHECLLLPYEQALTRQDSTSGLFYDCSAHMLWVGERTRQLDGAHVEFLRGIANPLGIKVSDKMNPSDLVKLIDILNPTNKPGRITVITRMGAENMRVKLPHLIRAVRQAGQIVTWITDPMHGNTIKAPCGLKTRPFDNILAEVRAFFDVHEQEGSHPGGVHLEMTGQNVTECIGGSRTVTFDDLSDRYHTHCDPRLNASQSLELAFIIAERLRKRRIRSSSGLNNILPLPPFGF
Sorghum bicolor SbDHS1a, SEQ ID NO: 9, recombinant, sequence (C5X2H5 46-540): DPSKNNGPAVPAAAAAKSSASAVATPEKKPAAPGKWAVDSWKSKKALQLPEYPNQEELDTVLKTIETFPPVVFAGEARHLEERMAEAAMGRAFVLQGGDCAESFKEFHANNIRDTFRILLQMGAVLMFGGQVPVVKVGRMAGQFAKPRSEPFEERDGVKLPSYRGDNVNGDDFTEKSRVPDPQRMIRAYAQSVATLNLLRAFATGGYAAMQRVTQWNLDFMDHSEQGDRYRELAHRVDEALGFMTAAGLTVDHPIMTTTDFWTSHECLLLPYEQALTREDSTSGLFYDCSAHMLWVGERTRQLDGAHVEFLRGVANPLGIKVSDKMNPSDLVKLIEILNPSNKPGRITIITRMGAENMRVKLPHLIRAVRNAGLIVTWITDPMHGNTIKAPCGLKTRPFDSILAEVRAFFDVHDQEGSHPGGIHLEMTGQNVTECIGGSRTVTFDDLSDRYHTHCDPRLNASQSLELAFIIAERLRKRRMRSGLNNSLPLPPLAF
Arabidopsis thaliana AtDHS2, sequence (Q00218 2-507): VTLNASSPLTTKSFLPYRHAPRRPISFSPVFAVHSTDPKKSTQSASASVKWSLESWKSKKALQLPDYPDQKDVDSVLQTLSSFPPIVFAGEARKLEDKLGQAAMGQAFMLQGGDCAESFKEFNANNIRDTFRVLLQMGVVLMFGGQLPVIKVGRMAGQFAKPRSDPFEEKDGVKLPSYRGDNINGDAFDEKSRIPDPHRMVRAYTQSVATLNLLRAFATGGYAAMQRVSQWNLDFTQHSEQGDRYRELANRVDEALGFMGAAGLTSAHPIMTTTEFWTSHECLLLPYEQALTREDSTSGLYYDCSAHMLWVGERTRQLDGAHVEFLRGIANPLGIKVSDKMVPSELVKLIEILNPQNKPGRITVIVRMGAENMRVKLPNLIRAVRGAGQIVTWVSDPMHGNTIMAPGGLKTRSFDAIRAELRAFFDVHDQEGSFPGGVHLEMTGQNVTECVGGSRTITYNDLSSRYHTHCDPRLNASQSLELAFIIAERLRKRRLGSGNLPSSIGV
T1 sequence (C5YJQ4 42-508): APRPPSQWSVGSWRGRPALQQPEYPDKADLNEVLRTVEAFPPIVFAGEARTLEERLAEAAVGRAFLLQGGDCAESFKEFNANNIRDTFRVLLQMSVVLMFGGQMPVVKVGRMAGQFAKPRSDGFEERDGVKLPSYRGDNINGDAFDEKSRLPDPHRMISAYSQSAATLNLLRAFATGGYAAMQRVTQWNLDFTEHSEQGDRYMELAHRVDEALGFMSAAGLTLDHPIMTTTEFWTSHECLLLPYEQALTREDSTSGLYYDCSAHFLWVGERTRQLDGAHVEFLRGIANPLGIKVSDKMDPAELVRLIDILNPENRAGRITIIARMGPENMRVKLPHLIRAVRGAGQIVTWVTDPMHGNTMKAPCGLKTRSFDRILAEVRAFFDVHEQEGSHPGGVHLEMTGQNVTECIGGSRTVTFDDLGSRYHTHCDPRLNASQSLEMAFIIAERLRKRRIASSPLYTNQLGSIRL

For `N[C@@H](Cc1ccccc1)C(=O)O` [Arogenate incubated with HCl], the “inhibition by hydrolyzed arogenate” value is recorded as “did not inhibit” in assay [1], “does not inhibit” in [1] (listed as Arogenate that is hydrolyzed to phenylalanine) and “does not inhibit” in assay [2].
`N[C@@H](CC1(C(=O)O)C=CC(O)C=C1)C(=O)O` (stereo partly shown) [arogenate]: the IC50 is ~285 µM and 285 µM in assay [3] (IC50 (arogenate), 1.5 mM PEP, 2 mM E4P); greater than 500 µM in assay [4] (read-out: IC50 (arogenate)); ~91 µM and 91 µM in assay [5] (1.5 mM PEP, 2 mM E4P, read-out: IC50 (arogenate)). Moreover, the inhibition at 500 µM in [3] (read-out: inhibition at 0.5 mM) was roughly 50%; in [5] (effector 0.5 mM, read-out: inhibition at 0.5 mM), greater than 75%; in assay [7], roughly 50%; in assay [8], roughly 40%. Moreover, in assay [4] (even up to 2.5 mM), the “inhibition by arogenate up to 2.5 mM” value was “not inhibited”. The “mode of inhibition with respect to E4P” value in assay [5] (FIG. 18) is listed as “uncompetitive inhibition kinetics”. Moreover, in assay [5] (FIG. 18), the “mode of inhibition with respect to PEP” value is recorded as “mixed inhibition mechanism”. Also, in assay [6], the “effect at 0.5 mM” value is recorded as “no effect”. Besides, the results for the kcat/Km in [9] and in [10] were 579600 ± 24300 M⁻¹ s⁻¹ and 337500 ± 19500 M⁻¹ s⁻¹, respectively.
